The values below come from PMC12723384, “A S180F substitution in D-alanine aminotransferase confers resistance to β-chloro-D-alanine in Staphylococcus aureus” (The Journal of Biological Chemistry, 2025).

In general, IC50 refers to the concentration needed to halve the response being measured.

Holding throughout (format): biochemical
In assay [1] the target is T1, D-alanine aminotransferase (Dat) (Staphylococcus aureus, UniProt A0A0H2XHU6).
T1 construct: recombinant HIS-tagged wild-type Dat from JE2, expressed from pET28b in E. coli
T1 sequence (A0A0H2XHU6 1-282): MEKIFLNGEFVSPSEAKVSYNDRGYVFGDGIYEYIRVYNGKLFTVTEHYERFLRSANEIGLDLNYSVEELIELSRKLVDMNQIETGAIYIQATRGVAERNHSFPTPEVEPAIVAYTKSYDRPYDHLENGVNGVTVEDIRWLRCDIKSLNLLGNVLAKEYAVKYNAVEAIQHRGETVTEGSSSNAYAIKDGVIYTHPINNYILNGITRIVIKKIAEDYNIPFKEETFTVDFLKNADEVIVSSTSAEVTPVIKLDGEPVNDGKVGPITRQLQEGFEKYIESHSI
As to the kind of experiment: lactate dehydrogenase-coupled assay of pyruvate production from D-alanine, A340.

The target of assay [2] is T2, D-alanine aminotransferase (Dat-S180F) (Staphylococcus aureus, UniProt A0A0H2XHU6, S180F).
T2 construct: recombinant HIS-tagged Dat-S180F from BCDA1, expressed from pET28b in E. coli
T2 sequence (A0A0H2XHU6 1-282 S180F): T1 sequence (A0A0H2XHU6 1-282)
The assay is described as above.

Assay [3] deals with T3, D-alanine aminotransferase (Dat) (Staphylococcus aureus, UniProt Q5HF24).
T3 construct: recombinant HIS-tagged wild-type Dat
As to the kind of experiment: lactate dehydrogenase-coupled assay, turnover of […] D-alanine to pyruvate.

With `N[C@H](CCl)C(=O)O` [BCDA, β-chloro-D-alanine], the IC50 in assay [1] came out at 96.8 ± 12 µM; in assay [2] it was 34 ± 4.7 µM.

In the case of `C[C@@H](N)C(=O)O` [D-alanine], in assay [3], the “lactate dehydrogenase-coupled assay, turnover of 25 mM D-alanine to pyruvate” value was “comparison of wild-type Dat (green) and Dat-S180F (violet) enzymatic production of pyruvate from D-alanine”.
